Tested on: HEK293 cells
Assay: Preliminary screening as mRNA vectors, EGFP mRNA transfection of HEK293 cells
Format: cell-based
Conditions: EGFP mRNA 50 ng per well, 96-well plates; percentage of GFP fluorescent cells relative to total number of cells (Hoechst)
In short: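 Screening format: EGFP mRNA transfection (50 ng/well) into HEK293 in 10% FBS-supplemented DMEM. Percent green fluorescent cells, normalised to Hoechst nuclear count, gave the value; Lipofectamine2000 was the reference transfectant.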

| Compound | Absolute mRNA transfection efficiency in HEK293 cells |
| --- | --- |
| CCCCCCCCCCCCCCCNc1nc(NCCN2CCN(C)CC2)nc(SCCCCCC)n1 [Compound D5S6N15] | 16.4% |
| CCCCCCCCCCCCCCCCNc1nc(NCCN2CCN(C)CC2)nc(SCCCCCC)n1 [Compound D5S6N16] | 35.4% |
| CCCCCCCCCCCCCCCCCCNc1nc(NCCN2CCN(C)CC2)nc(SCCCCCC)n1 [Compound D5S6N18] | 16.6% |
| CCCCCCSc1nc(NCCN2CCN(C)CC2)nc(SCCCCCC)n1 [Compound D5S6S6] | 4.3% |
| CCCCCCCSc1nc(NCCN2CCN(C)CC2)nc(SCCCCCC)n1 [Compound D5S6S7] | 10.0% |
| CCCCCCCCSc1nc(NCCN2CCN(C)CC2)nc(SCCCCCC)n1 [Compound D5S6S8] | 8.7% |
| CCCCCCCCCSc1nc(NCCN2CCN(C)CC2)nc(SCCCCCC)n1 [Compound D5S6S9] | 8.3% |
| CCCCCCCCCCSc1nc(NCCN2CCN(C)CC2)nc(SCCCCCC)n1 [Compound D5S6S10] | 10.1% |
| CCCCCCCCCCCSc1nc(NCCN2CCN(C)CC2)nc(SCCCCCC)n1 [Compound D5S6S11] | 21.1% |
| CCCCCCCCCCCCSc1nc(NCCN2CCN(C)CC2)nc(SCCCCCC)n1 [Compound D5S6S12] | 14.0% |
| CCCCCCCCCCCCCCSc1nc(NCCN2CCN(C)CC2)nc(SCCCCCC)n1 [Compound D5S6S14] | 45.3% |
| CCCCCCCCCCCCCCCSc1nc(NCCN2CCN(C)CC2)nc(SCCCCCC)n1 [Compound D5S6S15] | 29.7% |
| CCCCCCCCCCCCCCCCSc1nc(NCCN2CCN(C)CC2)nc(SCCCCCC)n1 [Compound D5S6S16] | 60.5% |
| CCCCCCCCCCCCCCCCCCSc1nc(NCCN2CCN(C)CC2)nc(SCCCCCC)n1 [Compound D5S6S18] | 55.1% |
| CCCCCCCSc1nc(NCCCCCC)nc(NCCN2CCN(C)CC2)n1 [Compound D5S7N6] | 1.9% |
| CCCCCCCNc1nc(NCCN2CCN(C)CC2)nc(SCCCCCCC)n1 [Compound D5S7N7] | 1.0% |
| CCCCCCCCNc1nc(NCCN2CCN(C)CC2)nc(SCCCCCCC)n1 [Compound D5S7N8] | 4.3% |
| CCCCCCCCCNc1nc(NCCN2CCN(C)CC2)nc(SCCCCCCC)n1 [Compound D5S7N9] | 3.1% |
| CCCCCCCCCCCNc1nc(NCCN2CCN(C)CC2)nc(SCCCCCCC)n1 [Compound D5S7N11] | 8.2% |
| CCCCCCCCCCCCNc1nc(NCCN2CCN(C)CC2)nc(SCCCCCCC)n1 [Compound D5S7N12] | 23.0% |
| CCCCCCCCCCCCCNc1nc(NCCN2CCN(C)CC2)nc(SCCCCCCC)n1 [Compound D5S7N13] | 39.5% |
| CCCCCCCCCCCCCCCNc1nc(NCCN2CCN(C)CC2)nc(SCCCCCCC)n1 [Compound D5S7N15] | 38.5% |
| CCCCCCCCCCCCCCCCNc1nc(NCCN2CCN(C)CC2)nc(SCCCCCCC)n1 [Compound D5S7N16] | 32.2% |

| Compound | Absolute mRNA transfection efficiency in HEK293 cells |
| --- | --- |
| CCCCCCCCCCCCCCCCCCNc1nc(NCCN2CCN(C)CC2)nc(SCCCCCCC)n1 [Compound D5S7N18] | 38.5% |
| CCCCCCCSc1nc(NCCN2CCN(C)CC2)nc(SCCCCCCC)n1 [Compound D5S7S7] | 10.5% |
| CCCCCCCCSc1nc(NCCN2CCN(C)CC2)nc(SCCCCCCC)n1 [Compound D5S7S8] | 16.6% |
| CCCCCCCCCSc1nc(NCCN2CCN(C)CC2)nc(SCCCCCCC)n1 [Compound D5S7S9] | 20.6% |
| CCCCCCCCCCSc1nc(NCCN2CCN(C)CC2)nc(SCCCCCCC)n1 [Compound D5S7S10] | 12.2% |
| CCCCCCCCCCCSc1nc(NCCN2CCN(C)CC2)nc(SCCCCCCC)n1 [Compound D5S7S11] | 42.0% |
| CCCCCCCCCCCCSc1nc(NCCN2CCN(C)CC2)nc(SCCCCCCC)n1 [Compound D5S7S12] | 48.8% |
| CCCCCCCCCCCCCCSc1nc(NCCN2CCN(C)CC2)nc(SCCCCCCC)n1 [Compound D5S7S14] | 63.7% |
| CCCCCCCCCCCCCCCSc1nc(NCCN2CCN(C)CC2)nc(SCCCCCCC)n1 [Compound D5S7S15] | 58.7% |
| CCCCCCCCCCCCCCCCSc1nc(NCCN2CCN(C)CC2)nc(SCCCCCCC)n1 [Compound D5S7S16] | 49.2% |
| CCCCCCCCCCCCCCCCCCSc1nc(NCCN2CCN(C)CC2)nc(SCCCCCCC)n1 [Compound D5S7S18] | 3.8% |
| CCCCCCCCSc1nc(NCCCCCC)nc(NCCN2CCN(C)CC2)n1 [Compound D5S8N6] | 1.6% |
| CCCCCCCCSc1nc(NCCCCCCC)nc(NCCN2CCN(C)CC2)n1 [Compound D5S8N7] | 2.5% |
| CCCCCCCCNc1nc(NCCN2CCN(C)CC2)nc(SCCCCCCCC)n1 [Compound D5S8N8] | 1.3% |
| CCCCCCCCCNc1nc(NCCN2CCN(C)CC2)nc(SCCCCCCCC)n1 [Compound D5S8N9] | 11.2% |
| CCCCCCCCCCCNc1nc(NCCN2CCN(C)CC2)nc(SCCCCCCCC)n1 [Compound D5S8N11] | 30.1% |
| CCCCCCCCCCCCNc1nc(NCCN2CCN(C)CC2)nc(SCCCCCCCC)n1 [Compound D5S8N12] | 52.5% |
| CCCCCCCCCCCCCNc1nc(NCCN2CCN(C)CC2)nc(SCCCCCCCC)n1 [Compound D5S8N13] | 44.2% |
| CCCCCCCCCCCCCCCNc1nc(NCCN2CCN(C)CC2)nc(SCCCCCCCC)n1 [Compound D5S8N15] | 14.9% |
| CCCCCCCCCCCCCCCCNc1nc(NCCN2CCN(C)CC2)nc(SCCCCCCCC)n1 [Compound D5S8N16] | 32.3% |
| CCCCCCCCCCCCCCCCCCNc1nc(NCCN2CCN(C)CC2)nc(SCCCCCCCC)n1 [Compound D5S8N18] | 29.9% |
| CCCCCCCCSc1nc(NCCN2CCN(C)CC2)nc(SCCCCCCCC)n1 [Compound D5S8S8] | 45.2% |
| CCCCCCCCCSc1nc(NCCN2CCN(C)CC2)nc(SCCCCCCCC)n1 [Compound D5S8S9] | 36.1% |

| Compound | Absolute mRNA transfection efficiency in HEK293 cells |
| --- | --- |
| CCCCCCCCCCSc1nc(NCCN2CCN(C)CC2)nc(SCCCCCCCC)n1 [Compound D5S8S10] | 65.6% |
| CCCCCCCCCCCSc1nc(NCCN2CCN(C)CC2)nc(SCCCCCCCC)n1 [Compound D5S8S11] | 87.0% |
| CCCCCCCCCCCCSc1nc(NCCN2CCN(C)CC2)nc(SCCCCCCCC)n1 [Compound D5S8S12] | 47.4% |
| CCCCCCCCCSc1nc(NCCCCCC)nc(NCCN2CCN(C)CC2)n1 [Compound D5S9N6] | 2.9% |
| CCCCCCCCCSc1nc(NCCCCCCC)nc(NCCN2CCN(C)CC2)n1 [Compound D5S9N7] | 2.6% |
| CCCCCCCCCSc1nc(NCCCCCCCC)nc(NCCN2CCN(C)CC2)n1 [Compound D5S9N8] | 6.0% |
| CCCCCCCCCNc1nc(NCCN2CCN(C)CC2)nc(SCCCCCCCCC)n1 [Compound D5S9N9] | 38.2% |
| CCCCCCCCCCCNc1nc(NCCN2CCN(C)CC2)nc(SCCCCCCCCC)n1 [Compound D5S9N11] | 32.1% |
| CCCCCCCCCCCCNc1nc(NCCN2CCN(C)CC2)nc(SCCCCCCCCC)n1 [Compound D5S9N12] | 24.6% |
| CCCCCCCCCCCCCNc1nc(NCCN2CCN(C)CC2)nc(SCCCCCCCCC)n1 [Compound D5S9N13] | 41.5% |
| CCCCCCCCCCCCCCCNc1nc(NCCN2CCN(C)CC2)nc(SCCCCCCCCC)n1 [Compound D5S9N15] | 32.9% |
| CCCCCCCCCCCCCCCCNc1nc(NCCN2CCN(C)CC2)nc(SCCCCCCCCC)n1 [Compound D5S9N16] | 16.1% |
| CCCCCCCCCCCCCCCCCCNc1nc(NCCN2CCN(C)CC2)nc(SCCCCCCCCC)n1 [Compound D5S9N18] | 28.6% |
| CCCCCCCCCCSc1nc(NCCCCCC)nc(NCCN2CCN(C)CC2)n1 [Compound D5S10N6] | 1.1% |
| CCCCCCCCCCSc1nc(NCCCCCCC)nc(NCCN2CCN(C)CC2)n1 [Compound D5S10N7] | 3.2% |
| CCCCCCCCCCSc1nc(NCCCCCCCC)nc(NCCN2CCN(C)CC2)n1 [Compound D5S10N8] | 8.6% |
| CCCCCCCCCCSc1nc(NCCCCCCCCC)nc(NCCN2CCN(C)CC2)n1 [Compound D5S10N9] | 8.5% |
| CCCCCCCCCCCNc1nc(NCCN2CCN(C)CC2)nc(SCCCCCCCCCC)n1 [Compound D5S10N11] | 11.0% |
| CCCCCCCCCCCCNc1nc(NCCN2CCN(C)CC2)nc(SCCCCCCCCCC)n1 [Compound D5S10N12] | 3.6% |
| CCCCCCCCCCCCCNc1nc(NCCN2CCN(C)CC2)nc(SCCCCCCCCCC)n1 [Compound D5S10N13] | 4.6% |
| CCCCCCCCCCCCCCCNc1nc(NCCN2CCN(C)CC2)nc(SCCCCCCCCCC)n1 [Compound D5S10N15] | 1.8% |
| CCCCCCCCCCCCCCCCNc1nc(NCCN2CCN(C)CC2)nc(SCCCCCCCCCC)n1 [Compound D5S10N16] | 3.9% |

From patent US20230123334A1, “AMINO LIPID COMPOUND, PREPARATION METHOD THEREFOR, AND APPLICATION THEREOF” (SHENZHEN SHENXIN BIOTECHNOLOGY CO., LTD., priority 2020, published 2023)
